From US20250136619A1, “HETEROBIFUNCTIONAL COMPOUNDS AND THEIR USE IN TREATING DISEASE” (HALDA THERAPEUTICS OPCO, INC., priority 2021, published 2025)
Read-outs that look alike come from different tables or passages of the source.

Key:
[1] = test system: HeLa cells; assay: Cellular growth inhibition assay (CellTiter-Glo), HeLa cells; type: cell-based; settings: HeLa cells, three days of compound treatment, CellTiter-Glo 2.0, read-out: CTG HELA GI50
Procedure: (§1) HEK293 and HeLa cells were cultured in DMEM medium supplemented with 10% fetal bovine serum and 1% Penn/Strep. Cells were seeded in white 384-well plates at 500 cells/well in […] complete medium. Following seeding, plates were spun at 300×g for three minutes and cultured at 37° C. with 5% CO2 in a humidified tissue culture incubator.
(§2) After 24 hours, compounds were titrated in 100% DMSO and diluted in complete cell culture medium. […] of compound/media mixture was added to cells to bring total volume in well to […]. DMSO alone was used as a negative control. Plates were then spun at 300×g for three minutes and stored at 37° C. with 5% CO2 for three days.
(§3) On Day 0 and Day 3 of compound treatment, cell viability was quantified with CellTiter-Glo 2.0 reagent (Promega). After equilibrating microplates at room temperature for 30 minutes, 25 μL CellTiter-Glo 2.0 reagent was dispensed into each well to bring total volume to […]. Plates were mixed on shaker for 2 minutes at 500 rpm, followed by a 10-minute incubation at room temperature. Following a quick spin, luminescence readings were measured with an En Vision Plate Reader. Data was normalized to DMSO treated Day 0 and Day 3 readings. A four-parameter non-linear regression curve fit was applied to dose-response data in GraphPad Prism data analysis software to determine the half maximal growth inhibitory concentration (GI50) for each compound.

[2] = test system: HEK293 cells; assay: Cellular growth inhibition assay (CellTiter-Glo), HEK293 cells; type: cell-based; settings: HEK293 cells, three days of compound treatment, CellTiter-Glo 2.0, read-out: CTG HEK293 GI50
Procedure: as §1, §2, §3

| SMILES | GI50 ([1]; Homo sapiens, 72 h) [nM] | GI50 [1] [nM] | GI50 ([2]; Homo sapiens, 72 h) [nM] | GI50 [2] [nM] |
| --- | --- | --- | --- | --- |
| CCc1cnn2c(NCc3ccc(OCCOCCOCCOCCOCCOCCOCCOC/C=C/C(=O)N4CCC[C@@H](n5nc(-c6ccc(Oc7ccccc7)cc6)c6c(N)ncnc65)C4)nc3)cc(N3CCCC[C@H]3CCO)nc12 [Compound I-45] | 500 to 1500 |  | 500 to 1500 |  |
| CCc1cnn2c(NCc3ccc(OCCOCCOCCOCCOCCOCCOCCN(C)C/C=C/C(=O)N4CCC[C@@H](n5nc(-c6ccc(Oc7ccccc7)cc6)c6c(N)ncnc65)C4)nc3)cc(N3CCCC[C@H]3CCO)nc12 [Compound I-46] | 1500 to 5000 |  | 1500 to 5000 |  |
| C=CC(=O)N1CCN([C@@H](CC2CC2)c2ccc([C@H](C)Nc3ncc4c(n3)N(CCOCCOCCOCCOCCOc3ccc(CNc5cc(N6CCCC[C@H]6CCO)nc6c(CC)cnn56)cn3)C(=O)OC4)cc2)CC1 [Compound I-57] | < 500 |  | < 500 |  |
| C=CC(=O)N1CCN([C@@H](CC2CC2)c2ccc([C@H](C)Nc3ncc4c(n3)N(CCOCCOCCOCCOCCn3cc(CNc5cc(N6CCCC[C@H]6CCO)nc6c(CC)cnn56)ccc3=O)C(=O)OC4)cc2)CC1 [Compound I-58] | < 500 |  | 500 to 1500 |  |
| C=CC(=O)N1CCN([C@@H](CC2CC2)c2ccc([C@H](C)Nc3ncc4c(n3)N(CCOCCOCCOCCOCCOCCOCCON(C)C(=O)N3N=C(c5cc(F)ccc5F)SC3(CCCN)c3ccccc3)C(=O)OC4)cc2)CC1 (stereo partly shown) [Compound I-60] | 500 to 1500 |  | 1500 to 5000 |  |
| C=CC(=O)N1CCN([C@@H](CC2CC2)c2ccc([C@H](C)Nc3ncc4c(n3)N(CCOCCOCCOCCOCCOCCOCCOCCOCCON(C)C(=O)N3N=C(c5cc(F)ccc5F)SC3(CCCN)c3ccccc3)C(=O)OC4)cc2)CC1 (stereo partly shown) [Compound I-61] | 500 to 1500 |  | 1500 to 5000 |  |
| CN(C/C=C/C(=O)N1CCC[C@@H](n2nc(-c3ccc(Oc4ccccc4)cc3)c3c(N)ncnc32)C1)CCOCCOCCOCCOCCOCCOCCNS(=O)(=O)c1ccc(Nc2ncc(Br)c(Nc3cccc(F)c3C(N)=O)n2)cc1 [Compound I-65, 2-[[2-[4-[2-[2-[2-[2-[2-[2-[2-[[(E)-4-[(3R)-3-[4-amino-3-(4-phenoxyphenyl)pyrazolo[3,4-d]pyrimidin-1-yl]-1-piperidyl]-4-oxo-but-2-enyl]-methyl-amino]ethoxy]ethoxy]ethoxy]ethoxy]ethoxy]ethoxy]ethylsulfamoyl]anilino]-5-bromo-pyrimidin-4-yl]amino]-6-fluoro-benzamide] | 1500 to 5000 |  | > 5000 |  |
| CCc1cnn2c(NCc3ccc(OCCCCCn4c(C#N)ccc(N[C@@H](C)c5cc6cc(Cl)ccc6[nH]c5=O)c4=O)nc3)cc(N3CCCC[C@H]3CCO)nc12 [Compound I-89] |  | < 500 |  | 1500 to 5000 |
| CCc1cnn2c(NCc3ccc(OCCCCCOc4nc(C#N)ccc4N[C@@H](C)c4cc5cc(Cl)ccc5[nH]c4=O)nc3)cc(N3CCCC[C@H]3CCO)nc12 [Compound I-90, 5-[[(1S)-1-(6-chloro-2-oxo-1H-quinolin-3-yl)ethyl]amino]-6-[5-[5-[[[3-ethyl-5-[(2S)-2-(2-hydroxyethyl)-1-piperidyl]pyrazolo[1,5-a]pyrimidin-7-yl]aminomethyl]-2-pyridyl]oxy]pentoxy]pyridine-2-carbonitrile] |  | < 500 |  | < 500 |
| CCc1cnn2c(NCc3ccc(OCCOCCOCCCCCn4c(C#N)ccc(N[C@@H](C)c5cc6cc(Cl)ccc6[nH]c5=O)c4=O)nc3)cc(N3CCCC[C@H]3CCO)nc12 [Compound I-91] |  | < 500 |  | < 500 |
| CCc1cnn2c(NCc3ccc(OCCOCCOCCOCCOCCNS(=O)(=O)c4cc(F)cc(N(C(=O)[C@@H]5CCC(=O)N5c5cc(C#N)ccn5)C(C(=O)NC5CC(F)(F)C5)c5ccccc5Cl)c4)nc3)cc(N3CCCC[C@H]3CCO)nc12 (stereo partly shown) [Compound I-94] |  | 500 to 1500 |  | 1500 to 5000 |
| CCc1cnn2c(NCc3ccc(=O)n(CCOCCOCCOCCOCCNS(=O)(=O)c4cc(F)cc(N(C(=O)[C@@H]5CCC(=O)N5c5cc(C#N)ccn5)C(C(=O)NC5CC(F)(F)C5)c5ccccc5Cl)c4)c3)cc(N3CCCC[C@H]3CCO)nc12 (stereo partly shown) [Compound I-95] |  | 500 to 1500 |  | 1500 to 5000 |
| CCc1cnn2c(NCc3ccc(OCCOCCOCCCc4cc(-c5cnc([C@H](C)Nc6nccc(N7C(=O)OC[C@@H]7[C@H](C)F)n6)cc5C)cc(C(F)(F)F)n4)nc3)cc(N3CCCC[C@H]3CCO)nc12 [Compound I-99] |  | < 500 |  | < 500 |

The next lines start with results.

| GI50 ([1]; Homo sapiens, 72 h) [nM] | GI50 [1] [nM] | SMILES | GI50 ([2]; Homo sapiens, 72 h) [nM] | GI50 [2] [nM] |
| --- | --- | --- | --- | --- |
| < 500 |  | CCc1cnn2c(NCc3ccc(=O)n(CCOCCOCCCc4cc(-c5cnc([C@H](C)Nc6nccc(N7C(=O)OC[C@@H]7[C@H](C)F)n6)cc5C)cc(C(F)(F)F)n4)c3)cc(N3CCCC[C@H]3CCO)nc12 [Compound I-100, (4R)-3-[2-[[(1S)-1-[5-[2-[3-[2-[2-[5-[[3-ethyl-5-[(2S)-2-(2-hydroxyethyl)-1-piperidyl]pyrazolo[1,5-a]pyrimidin-7-yl]aminomethyl]-2-oxo-1-pyridyl]ethoxy]ethoxy]propyl]-6-(trifluoromethyl)-4-pyridyl]-4-methyl-2-pyridyl]ethyl]amino]pyrimidin-4-yl]-4-[(1S)-1-fluoroethyl]oxazolidin-2-one] | < 500 |  |
|  | < 500 | CCc1cnn2c(NCc3ccc(OCCCc4cc(-c5cnc([C@H](C)Nc6nccc(N7C(=O)OC[C@@H]7[C@H](C)F)n6)cc5C)cc(C(F)(F)F)n4)nc3)cc(N3CCCC[C@H]3CCO)nc12 [Compound I-101] |  | < 500 |
|  | < 500 | CCc1cnn2c(NCc3ccc(OCCOCCOCCOCCOCCCc4cc(-c5cnc([C@H](C)Nc6nccc(N7C(=O)OC[C@@H]7[C@H](C)F)n6)cc5C)cc(C(F)(F)F)n4)nc3)cc(N3CCCC[C@H]3CCO)nc12 [Compound I-102] |  | < 500 |
|  | 500 to 1500 | CCc1cnn2c(NCc3ccc(=O)n(CCOCCOCCOCCOCCCc4cc(-c5cnc([C@H](C)Nc6nccc(N7C(=O)OC[C@@H]7[C@H](C)F)n6)cc5C)cc(C(F)(F)F)n4)c3)cc(N3CCCC[C@H]3CCO)nc12 [Compound I-103] |  | 500 to 1500 |
| > 5000 |  | CCNC(=O)C[C@@H]1N=C(c2ccc(OCCOCCOCCOCCOCCNS(=O)(=O)c3cc(F)cc(N(C(=O)[C@@H]4CCC(=O)N4c4cc(C#N)ccn4)C(C(=O)NC4CC(F)(F)C4)c4ccccc4Cl)c3)cc2)c2c(sc(C)c2C)-n2c(C)nnc21 (stereo partly drawn) [Compound I-104, (2S)—N-[1-(2-chlorophenyl)-2-[(3,3-difluorocyclobutyl)amino]-2-oxo-ethyl]-1-(4-cyano-2-pyridyl)-N-[3-[2-[2-[2-[2-[2-[4-[(9S)-9-[2-(ethylamino)-2-oxo-ethyl]-4,5, 13-trimethyl-3-thia-1,8,11,12-tetrazatricyclo[8.3.0.0^2,6]trideca-2 (6),4,7,10,12-pentaen-7-yl]phenoxy]ethoxy]ethoxy]ethoxy]ethoxy]ethylsulfamoyl]-5-fluoro-phenyl]-5-oxo-pyrrolidine-2-carboxamide] | > 5000 |  |
| > 5000 |  | CCNC(=O)C[C@@H]1N=C(c2ccc(OCCOCCOCC(=O)N3CC(=O)N(c4cc(C#N)ccn4)[C@H](C(=O)N(c4cc(F)cc(F)c4)[C@H](C(=O)NC4CC(F)(F)C4)c4ccccc4Cl)C3)cc2)c2c(sc(C)c2C)-n2c(C)nnc21 [Compound I-105, (2S)—N-[(1S)-1-(2-chlorophenyl)-2-[(3,3-difluorocyclobutyl)amino]-2-oxo-ethyl]-1-(4-cyano-2-pyridyl)-N-(3,5-difluorophenyl)-4-[2-[2-[2-[4-[(9S)-9-[2-(ethylamino)-2-oxo-ethyl]-4,5,13-trimethyl-3-thia-1,8,11,12-tetrazatricyclo[8.3.0.0^2,6]trideca-2 (6),4,7,10,12-pentaen-7-yl]phenoxy]ethoxy]ethoxy]acetyl]-6-oxo-piperazine-2-carboxamide] | > 5000 |  |
| > 5000 |  | CCNC(=O)C[C@@H]1N=C(c2ccc(OCCOCCOCCOCCOCC(=O)N3CC(=O)N(c4cc(C#N)ccn4)[C@H](C(=O)N(c4cc(F)cc(F)c4)[C@H](C(=O)NC4CC(F)(F)C4)c4ccccc4Cl)C3)cc2)c2c(sc(C)c2C)-n2c(C)nnc21 [Compound I-106, (2S)—N-[(1S)-1-(2-chlorophenyl)-2-[(3,3-difluorocyclobutyl)amino]-2-oxo-ethyl]-1-(4-cyano-2-pyridyl)-N-(3,5-difluorophenyl)-4-[2-[2-[2-[2-[2-[4-[(9S)-9-[2-(ethylamino)-2-oxo-ethyl]-4,5,13-trimethyl-3-thia-1,8,11,12-tetrazatricyclo[8.3.0.0^2,6]trideca-2 (6),4,7, 10,12-pentaen-7-yl]phenoxy]ethoxy]ethoxy]ethoxy]ethoxy]acetyl]-6-oxo-piperazine-2-carboxamide] | > 5000 |  |
